Laboratory results as given in patent publication US20100285146A1, “PEPTIDES AND METHODS FOR THE TREATMENT OF SYSTEMIC LUPUS ERYTHEMATOSUS” (priority 2007, published 2010).
No end group written: not given here.

Tests used:
[1] = tested on: C72 murine anti-DNA antibody; test: Anti-peptide direct binding ELISA with C72; conditions: for C72 Binding: direct binding ELISA, footnote: O.D. after one (1) hour; for binding of C72 murine anti-DNA antibody to laminin peptides (FIG. 1): ELISA, C72 conditioned medium in various dilutions
Method: (§1) Wells were coated with 10 μg/ml of the peptides, blocked with 1% BSA (bovine serum albumin) in PBS (pH 7.4), reacted with appropriately diluted plasma or monoclonal antibodies, incubated with anti-human or anti-mouse immunoglobulin enzyme conjugated to alkaline phosphatase and detected by addition of substrate (Sigma 100 Phosphatase Substrate Tablets) and color development using an Organon Teknika Microwell System spectrometer at wavelength of 405 nm.
The interaction of the C72 murine anti-DNA antibody with laminin peptides was analyzed by ELISA as described above. The C72 conditioned medium was diluted in PBS in various dilutions.
(§2) The peptides of the present invention were tested for their ability to bind directly with C72 murine anti-DNA antibodies and B3 human anti-DNA antibodies according to the method described hereinabove.

[2] = tested on: B3 human anti-DNA antibodies; test: Anti-peptide direct binding ELISA with B3; conditions: direct binding ELISA; footnote: O.D. after two (2) hours
Method: as §1
The human monoclonal anti-DNA antibodies DIL 6 and B3 were derived from lupus patients by the hybridoma technique. […] In FIGS. 3 and 4, the peptides are referred to as denoted above or as follows; AS30 is R27, AS19 is R35, AS35 is R26, AS17 is R28 and AS6 is R18.
as §2

C72 anti-DNA antibody = test: Competitive inhibition of C72 binding to R38 (5100); design: species or system murine; conditions: concentration of competitive inhibitor giving 50% inhibition, ELISA
Text: A competitive inhibition study compared how each of the peptides competes with R38 (5100) for binding to the C72 anti-DNA antibody. Conducted according to the methods described hereinabove, the results of the study are disclosed in Table 4 below and are further elucidated by reference to FIG. 10.

[3] = tested on: C72 murine anti-DNA antibody; test: Competitive inhibition of the binding of C72 to 5200; conditions: after incubation of C72 with the inhibiting agent
Method: The binding of C72 to 5200 was tested before and after incubation with 5200, R38, R18, Heparin, DNA and DNase. […] The percent inhibition is the percent reduction of the O.D. after incubation with the inhibiting agent.

[4] = tested on: urine antibodies of lupus patients; test: Urine anti-peptide antibody ELISA in patients; format: binding, human
[5] = tested on: BALB/c urinary immunoglobulins; test: Binding of murine urinary immunoglobulins, BALB/c control urine; conditions: pooled urine of BALB/c control mice
Method: as §1
(§3) Thus, pooled urine from at least 5 mice (either MRL/1pr/1pr or control mice, e.g. BALB/c) was added to wells coated with R38′ (5200), R18 or DNA as described above and bound 5200 assayed by ELISA.
(§4) Each group is comprised of pooled urine.

[6] = tested on: MRL/1pr/1pr urine antibodies; test: Binding of murine urinary immunoglobulins, MRL/1pr/1pr urine; design: species or system mice; conditions: pooled urine of MRL/1pr/1pr mice
Method: as §1, §3, §4

[7] = target: C72 murine anti-DNA antibody; test: competitive inhibition ELISA: peptide in solution against binding of C72 to coated 5100

KEGYKVELDLNITLEFETTSK [Peptide 5105]
C72 Binding [1]: 0.07 O.D. | B3 Binding [2]: 0.02 O.D.

LDLNITEFRTTSK [Peptide 5103]
C72 Binding [1]: 0.03 O.D. | B3 Binding [2]: 0.02 O.D.

KEGYKVELDLNITLEFRTTSK [Peptide 5106]
50% Inhibition of C72 binding to mouse R38 (5100) (C72 anti-DNA antibody): 2.5 µg/mL | C72 Binding [1]: 1.9 O.D. | B3 Binding [2]: 0.16 O.D.

KQNCLSSRASFRGCVRNLRLSR [Peptide R30, laminin derived peptide, residues 3011-3032]
binding of C72 murine anti-DNA antibody to laminin peptides (FIG. 1) [1]: binding | C72 Binding [1]: 0.75 O.D.

KATPMLKMRTSFHGCIK [Peptide R37, laminin derived peptide, residues 2615-2631]
binding of C72 murine anti-DNA antibody to laminin peptides (FIG. 1) [1]: binding | C72 Binding [1]: 1.8 O.D.

CC[C@H](C)[C@H](NC(=O)[C@H](CC(N)=O)NC(=O)[C@H](CC(C)C)NC(=O)[C@H](CC(=O)O)NC(=O)[C@H](CC(C)C)NC(=O)[C@H](CCCNC(=N)N)NC(=O)[C@@H](NC(=O)[C@H](CCCCN)NC(=O)[C@H](Cc1ccc(O)cc1)NC(=O)CNC(=O)[C@H](CCC(=O)O)NC(=O)[C@@H](N)CCCCN)C(C)C)C(=O)N[C@H](C(=O)N[C@@H](CC(C)C)C(=O)N[C@@H](CCC(=O)O)C(=O)N[C@@H](Cc1ccccc1)C(=O)N[C@@H](CCC(=O)O)C(=O)N[C@H](C(=O)N[C@H](C(=O)N[C@@H](CO)C(=O)N[C@@H](CCCCN)C(=O)O)[C@@H](C)O)[C@@H](C)O)[C@@H](C)O [Peptide 5107]
50% Inhibition of C72 binding to mouse R38 (5100) (C72 anti-DNA antibody): 85 µg/mL | C72 Binding [1]: 0.05 O.D. | B3 Binding [2]: 0.01 O.D.

heparin
inhibition of the binding of C72 to 5200 (FIG. 2) [3]: inhibition

KAGYKVRLALNITLAFRTTSK [Peptide 5108]
50% Inhibition of C72 binding to mouse R38 (5100) (C72 anti-DNA antibody): 2 µg/mL | C72 Binding [1]: 2.75 O.D. | Urine anti-5108 O.D. (Mean + S.E.) ([4]; Example 9, renal disease absent, 2 samples): 0.064 ± 0.05 O.D. | Urine anti-5108 O.D. (Mean + S.E.) ([4]; Example 9, renal disease present, 22 samples): 0.672 ± 0.1 O.D. | B3 Binding [2]: 1.93 O.D.

KEGYKVRLALNITLEFRTTSK [Peptide 5109]
50% Inhibition of C72 binding to mouse R38 (5100) (C72 anti-DNA antibody): 0.7 µg/mL | C72 Binding [1]: 2.72 O.D. | B3 Binding [2]: 1.94 O.D.

VQSDVNITLEFR [Peptide 5111]
C72 Binding [1]: 0.01 O.D. | B3 Binding [2]: 0.01 O.D.

KEGYKVRLDLNITLEF [Peptide 5101]
50% Inhibition of C72 binding to mouse R38 (5100) (C72 anti-DNA antibody): 5 µg/mL | C72 Binding [1]: 1.11 O.D. | B3 Binding [2]: 0.1 O.D.

RPVRHAQCRVCDGNSTNPRERH [Peptide R18, peptide from the N-terminal of mouse laminin alpha chain, residues 42-63, reference compound]
Binding of murine urinary immunoglobulins to antigen [5]: U.D. | Binding of murine urinary immunoglobulins to antigen [6]: U.D. | C72 Binding [1]: 0.01 O.D.

DNA
Binding of murine urinary immunoglobulins to antigen [5]: U.D. | Binding of murine urinary immunoglobulins to antigen [6]: U.D. | inhibition of the binding of C72 to 5200 (FIG. 2) [3]: inhibition

KEGYKVRLDLNITLAFRTTSK [Peptide 5110]
50% Inhibition of C72 binding to mouse R38 (5100) (C72 anti-DNA antibody): 0.7 µg/mL | C72 Binding [1]: 2.8 O.D. | B3 Binding [2]: 1.83 O.D.

VRLDLNITLEFR [Peptide 5102]
50% Inhibition of C72 binding to mouse R38 (5100) (C72 anti-DNA antibody): 30 µg/mL | C72 Binding [1]: 0.1 O.D. | B3 Binding [2]: 0.02 O.D.

AEGYAVALDLNITLEFATTSA [Peptide 5104]
C72 Binding [1]: 0.06 O.D. | B3 Binding [2]: 0.02 O.D.

KEGYKVQSDLNITLEFRTSSQ [Peptide 5300]
50% Inhibition of C72 binding to mouse R38 (5100) (C72 anti-DNA antibody): 85 µg/mL | C72 Binding [1]: 0.03 O.D. | B3 Binding [2]: 0.03 O.D.

DGKWHTVKTEYIKRKAF [Peptide R28, laminin derived peptide, residues 2779-2795]
C72 Binding [1]: 0.01 O.D.

B1: R38 peptide (5100), mouse R38 (peptide)
peptide: KEGYKVRLDLNITLEFRTTSK
IC50 [7]: 10 µg/mL

B2: 5200 peptide (R38′), mouse R38 analog (peptide)
peptide: KEGYKVRLDLNTTLEFRTTSK
IC50 [7]: 10 µg/mL

B3: 5300 peptide, human R38 (peptide)
peptide: KEGYKVQSDVNITLEFRTSSQ
IC50 [7]: 85 µg/mL

B4: 5101 peptide (Res. 1-16 of 5100) (peptide)
peptide: KEGYKVRLDLNITLEF
IC50 [7]: 5 µg/mL

B5: 5102 peptide (Res. 6-17 of 5100) (peptide)
peptide: VRLDLNITLEFR
IC50 [7]: 30 µg/mL

B6: 5106 peptide (charge subst. to neg. at 5100 a.a. 7) (peptide)
peptide: KEGYKVELDLNITLEFRTTSK
IC50 [7]: 2.5 µg/mL

B7: 5107 peptide (charge subst. to neg. at 5100 a.a. 17) (peptide)
peptide: KEGYKVRLDLNITLEFETTSK
IC50 [7]: 85 µg/mL

B8: 5108 peptide (Ala subst. of 5100 at all negative a.a.) (peptide)
peptide: KAGYKVRLALNITLAFRTTSK
IC50 [7]: 2 µg/mL

B9: 5109 peptide (Ala subst. of 5100 a.a. 9) (peptide)
peptide: KEGYKVRLALNITLEFRTTSK
IC50 [7]: 0.7 µg/mL

B10: 5110 peptide (Ala subst. of 5100 a.a. 15) (peptide)
peptide: KEGYKVRLDLNITLAFRTTSK
IC50 [7]: 0.7 µg/mL
